Reference: the kinase profiling compilation of Christmann-Franck et al. (2016)

Legend:
Assay in all cases: KINOMEscan competition binding
Settings in all cases: compound 10.0 µM
[1] = system: EGFR (human), P00533 [A750P; 747-749 del]
[2] = system: FLT3 (human), P36888 [D835Y]
[3] = system: MET (human), P08581 [M1250T]
[4] = system: FGFR3 (human), P22607 [G697C]
[5] = system: PIK3CA (human), P42336 [E542K]
[6] = system: PIK3CA (human), P42336 [H1047L]
[7] = system: RET (human), P07949 [V804L]
[8] = system: ABL1 (human), P00519 [F317L]
[9] = system: BMX (human), P51813 [V600E]
[10] = system: EGFR (human), P00533 [L858R]
[11] = system: EGFR (human), P00533 [G719C]
[12] = system: ABL1 (human), P00519 [F317I]
[13] = system: PIK3CA (human), P42336 [M1043I]
[14] = system: LRRK2 (human), Q5S007 [G2019S]
[15] = system: KIT (human), P10721 [A829P]

Chain of PIK3CA (human), P42336 [H1047L] (P42336 whole entry H1047L, looked up): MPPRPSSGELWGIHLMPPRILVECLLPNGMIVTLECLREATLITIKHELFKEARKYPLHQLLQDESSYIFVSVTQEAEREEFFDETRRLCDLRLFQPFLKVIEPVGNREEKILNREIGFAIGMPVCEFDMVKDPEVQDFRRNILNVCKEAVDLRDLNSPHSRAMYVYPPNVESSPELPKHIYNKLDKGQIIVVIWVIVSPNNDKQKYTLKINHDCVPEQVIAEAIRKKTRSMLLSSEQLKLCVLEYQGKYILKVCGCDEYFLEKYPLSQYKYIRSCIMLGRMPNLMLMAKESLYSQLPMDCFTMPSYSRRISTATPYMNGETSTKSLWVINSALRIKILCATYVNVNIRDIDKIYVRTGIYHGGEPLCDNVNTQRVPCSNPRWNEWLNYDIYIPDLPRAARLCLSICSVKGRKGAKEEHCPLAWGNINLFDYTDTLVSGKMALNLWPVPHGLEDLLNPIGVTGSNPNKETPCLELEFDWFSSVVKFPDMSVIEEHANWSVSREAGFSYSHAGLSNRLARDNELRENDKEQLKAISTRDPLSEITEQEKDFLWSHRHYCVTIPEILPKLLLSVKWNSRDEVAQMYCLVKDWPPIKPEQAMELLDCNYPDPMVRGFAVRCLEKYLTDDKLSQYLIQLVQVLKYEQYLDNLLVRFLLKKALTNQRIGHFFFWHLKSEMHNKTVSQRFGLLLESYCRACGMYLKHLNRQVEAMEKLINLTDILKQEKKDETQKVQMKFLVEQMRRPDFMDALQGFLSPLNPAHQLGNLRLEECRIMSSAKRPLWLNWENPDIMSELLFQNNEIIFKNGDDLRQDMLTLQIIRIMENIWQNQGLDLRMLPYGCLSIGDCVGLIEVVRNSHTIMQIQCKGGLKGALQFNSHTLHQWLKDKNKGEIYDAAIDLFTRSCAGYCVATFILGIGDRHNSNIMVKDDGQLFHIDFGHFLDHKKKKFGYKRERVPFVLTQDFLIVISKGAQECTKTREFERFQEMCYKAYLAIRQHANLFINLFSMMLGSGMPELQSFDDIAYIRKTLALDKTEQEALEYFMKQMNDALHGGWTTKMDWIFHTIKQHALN
Chain of LRRK2 (human), Q5S007 [G2019S] (Q5S007 whole entry G2019S, looked up): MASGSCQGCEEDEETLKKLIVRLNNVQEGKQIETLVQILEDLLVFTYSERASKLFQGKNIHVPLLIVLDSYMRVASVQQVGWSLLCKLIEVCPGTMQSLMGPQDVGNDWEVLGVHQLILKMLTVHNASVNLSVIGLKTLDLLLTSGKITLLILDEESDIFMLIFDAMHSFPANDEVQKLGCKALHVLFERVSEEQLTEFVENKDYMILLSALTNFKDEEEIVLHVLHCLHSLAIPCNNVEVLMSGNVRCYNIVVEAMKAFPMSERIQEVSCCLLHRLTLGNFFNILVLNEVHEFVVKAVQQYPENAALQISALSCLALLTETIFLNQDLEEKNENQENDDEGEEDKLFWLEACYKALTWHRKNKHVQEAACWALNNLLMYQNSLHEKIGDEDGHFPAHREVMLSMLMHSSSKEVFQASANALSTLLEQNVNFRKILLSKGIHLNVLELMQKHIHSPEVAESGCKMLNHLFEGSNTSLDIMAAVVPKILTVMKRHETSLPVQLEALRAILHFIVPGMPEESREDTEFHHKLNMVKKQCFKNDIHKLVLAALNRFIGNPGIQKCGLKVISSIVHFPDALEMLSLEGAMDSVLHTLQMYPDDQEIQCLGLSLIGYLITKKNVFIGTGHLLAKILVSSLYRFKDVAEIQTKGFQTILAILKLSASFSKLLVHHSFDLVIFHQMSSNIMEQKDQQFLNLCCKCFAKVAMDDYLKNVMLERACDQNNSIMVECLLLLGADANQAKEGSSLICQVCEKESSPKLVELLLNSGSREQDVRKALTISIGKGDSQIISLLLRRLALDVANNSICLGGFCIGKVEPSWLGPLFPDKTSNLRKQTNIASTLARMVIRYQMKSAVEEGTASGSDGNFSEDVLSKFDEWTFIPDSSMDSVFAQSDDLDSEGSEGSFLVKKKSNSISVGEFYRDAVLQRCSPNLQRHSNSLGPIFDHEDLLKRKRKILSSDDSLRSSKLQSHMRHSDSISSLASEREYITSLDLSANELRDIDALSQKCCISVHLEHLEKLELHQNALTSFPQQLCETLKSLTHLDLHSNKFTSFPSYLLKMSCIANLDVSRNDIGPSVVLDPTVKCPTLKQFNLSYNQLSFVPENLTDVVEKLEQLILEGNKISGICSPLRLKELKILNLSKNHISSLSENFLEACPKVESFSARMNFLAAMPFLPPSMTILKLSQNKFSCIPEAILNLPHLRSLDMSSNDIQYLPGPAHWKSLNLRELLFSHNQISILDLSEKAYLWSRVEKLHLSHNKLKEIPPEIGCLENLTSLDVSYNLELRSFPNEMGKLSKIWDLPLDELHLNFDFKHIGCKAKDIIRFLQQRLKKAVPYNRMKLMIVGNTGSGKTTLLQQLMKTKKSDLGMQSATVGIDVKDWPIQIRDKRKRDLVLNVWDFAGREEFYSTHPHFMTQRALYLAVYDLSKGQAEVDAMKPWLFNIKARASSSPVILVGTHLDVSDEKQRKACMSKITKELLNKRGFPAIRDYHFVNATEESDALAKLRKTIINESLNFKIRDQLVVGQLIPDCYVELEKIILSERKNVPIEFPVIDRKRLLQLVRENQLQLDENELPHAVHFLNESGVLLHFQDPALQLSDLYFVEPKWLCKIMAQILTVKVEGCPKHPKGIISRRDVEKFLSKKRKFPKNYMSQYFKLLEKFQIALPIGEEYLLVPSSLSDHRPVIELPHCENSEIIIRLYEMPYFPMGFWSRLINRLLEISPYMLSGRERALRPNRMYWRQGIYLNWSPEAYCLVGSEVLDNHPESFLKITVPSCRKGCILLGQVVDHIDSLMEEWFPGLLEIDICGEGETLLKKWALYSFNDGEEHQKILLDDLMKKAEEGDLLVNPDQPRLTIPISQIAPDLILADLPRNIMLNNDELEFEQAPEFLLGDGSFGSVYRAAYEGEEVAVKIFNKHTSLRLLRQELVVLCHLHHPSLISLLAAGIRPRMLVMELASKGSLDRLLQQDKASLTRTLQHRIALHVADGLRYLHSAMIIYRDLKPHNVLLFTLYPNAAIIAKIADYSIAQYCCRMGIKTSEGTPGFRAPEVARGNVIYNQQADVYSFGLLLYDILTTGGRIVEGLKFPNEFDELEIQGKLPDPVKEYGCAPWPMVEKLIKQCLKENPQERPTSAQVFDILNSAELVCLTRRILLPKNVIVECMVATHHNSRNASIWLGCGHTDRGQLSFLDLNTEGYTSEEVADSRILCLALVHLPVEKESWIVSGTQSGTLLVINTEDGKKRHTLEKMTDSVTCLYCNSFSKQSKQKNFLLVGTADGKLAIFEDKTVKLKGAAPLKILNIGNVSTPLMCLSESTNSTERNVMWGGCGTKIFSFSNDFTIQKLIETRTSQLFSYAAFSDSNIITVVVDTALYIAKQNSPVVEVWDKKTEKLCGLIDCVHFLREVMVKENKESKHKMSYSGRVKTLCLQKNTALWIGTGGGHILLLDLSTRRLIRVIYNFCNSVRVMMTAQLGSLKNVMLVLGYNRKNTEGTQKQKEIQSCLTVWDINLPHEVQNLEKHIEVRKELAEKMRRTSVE
Chain of ABL1 (human), P00519 [F317I] (P00519 whole entry F317I, looked up): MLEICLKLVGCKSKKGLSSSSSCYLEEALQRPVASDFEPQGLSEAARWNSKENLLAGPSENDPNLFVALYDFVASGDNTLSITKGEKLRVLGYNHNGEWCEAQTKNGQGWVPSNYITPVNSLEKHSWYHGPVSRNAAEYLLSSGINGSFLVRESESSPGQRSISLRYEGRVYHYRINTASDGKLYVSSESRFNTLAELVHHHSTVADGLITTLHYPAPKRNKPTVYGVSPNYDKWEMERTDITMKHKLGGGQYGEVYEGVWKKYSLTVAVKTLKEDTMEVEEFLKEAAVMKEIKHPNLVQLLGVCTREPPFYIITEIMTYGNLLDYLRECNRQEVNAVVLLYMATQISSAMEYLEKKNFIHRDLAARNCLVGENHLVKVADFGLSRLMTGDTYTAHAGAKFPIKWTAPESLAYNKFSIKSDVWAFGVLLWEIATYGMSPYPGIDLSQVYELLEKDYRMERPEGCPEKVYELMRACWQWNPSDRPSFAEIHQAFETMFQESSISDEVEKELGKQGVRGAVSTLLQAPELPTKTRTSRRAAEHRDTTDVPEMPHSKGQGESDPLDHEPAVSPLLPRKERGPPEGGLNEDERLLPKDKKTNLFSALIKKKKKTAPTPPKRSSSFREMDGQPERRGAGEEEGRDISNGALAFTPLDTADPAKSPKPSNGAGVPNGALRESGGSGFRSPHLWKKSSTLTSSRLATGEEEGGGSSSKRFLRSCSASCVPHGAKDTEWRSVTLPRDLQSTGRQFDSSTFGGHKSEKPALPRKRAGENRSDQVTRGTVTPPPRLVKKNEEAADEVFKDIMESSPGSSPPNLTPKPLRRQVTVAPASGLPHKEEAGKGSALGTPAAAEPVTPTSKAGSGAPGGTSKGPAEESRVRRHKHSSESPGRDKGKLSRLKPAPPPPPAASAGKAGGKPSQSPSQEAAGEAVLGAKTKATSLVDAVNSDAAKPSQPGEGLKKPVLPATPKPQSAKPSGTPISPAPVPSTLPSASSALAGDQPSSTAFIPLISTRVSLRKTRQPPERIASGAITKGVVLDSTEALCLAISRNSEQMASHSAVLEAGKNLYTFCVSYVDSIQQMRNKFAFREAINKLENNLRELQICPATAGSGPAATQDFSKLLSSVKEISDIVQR
Chain of ABL1 (human), P00519 [F317L] (P00519 whole entry F317L, looked up): as the sequence (P00519 whole entry F317I, looked up) above, with I317L counted along it
Chain of PIK3CA (human), P42336 [M1043I] (P42336 whole entry M1043I, looked up): as the sequence (P42336 whole entry H1047L, looked up) above, with M1043I, L1047H counted along it
Chain of PIK3CA (human), P42336 [E542K] (P42336 whole entry E542K, looked up): as the sequence (P42336 whole entry H1047L, looked up) above, with E542K, L1047H counted along it

Row | SMILES | kinase still bound, per cent of control [1] | kinase still bound, per cent of control [2] | kinase still bound, per cent of control [3] | kinase still bound, per cent of control [4] | kinase still bound, per cent of control [5] | kinase still bound, per cent of control [6] | kinase still bound, per cent of control [7] | kinase still bound, per cent of control [8] | kinase still bound, per cent of control [9] | kinase still bound, per cent of control [10] | kinase still bound, per cent of control [11] | kinase still bound, per cent of control [12] | kinase still bound, per cent of control [13] | kinase still bound, per cent of control [14] | kinase still bound, per cent of control [15]
1 | OCCCNc1cc(-c2ccnc(Nc3cccc(Cl)c3)n2)ccn1 | 100% | 19% | 100% | 100% | 100% | 100% | 100% | 100% | 100% | 100% | 100% | 100% | 100% | – | –
2 | CS(=O)(=O)N1CCN(Cc2cc3nc(-c4cccc5[nH]ncc45)nc(N4CCOCC4)c3s2)CC1 | 100% | 100% | 100% | 100% | 0.45% | 9.8% | 100% | 100% | 100% | 100% | 100% | 100% | 19% | – | –
3 | CC[C@@H]1C(=O)N(C)c2cnc(Nc3ccc(C(=O)NC4CCN(C)CC4)cc3OC)nc2N1C1CCCC1 | – | 100% | – | 100% | – | – | 100% | 100% | 100% | – | – | 100% | – | – | –
4 | Cc1ccc(C(=O)Nc2cccc(C(F)(F)F)c2)cc1Nc1cncc(C(N)=O)c1 | 100% | 100% | – | 100% | – | – | 100% | 22% | 0.15% | 100% | 100% | 13% | – | – | –
5 | CCN(CC)CCCCNc1ncc2c(n1)N(C)C(=O)N(c1c(Cl)c(OC)cc(OC)c1Cl)C2 | 100% | 100% | 100% | 1.3% | 100% | 100% | 100% | 100% | 100% | 100% | 100% | 100% | 100% | – | –
6 | COc1cc(C(=O)NC2CCN(C)CC2)ccc1Nc1ncc2c(n1)N(C1CCCC1)C(C)CC(=O)N2C (configuration not stated) | 100% | 100% | – | 100% | – | – | 100% | 100% | 100% | 100% | 100% | 100% | – | – | –
7 | Cc1n[nH]c2ccc(-c3cncc(OC[C@@H](N)Cc4c[nH]c5ccccc45)c3)cc12 | – | 0.2% | – | 100% | – | – | 12% | 100% | 100% | – | – | 100% | – | – | –
8 | COc1cc(C(=O)NC2CCN(C)CC2)ccc1Nc1ncc2c(n1)N(C1CCCC1)CCC(=O)N2C(C)C | 100% | 100% | 100% | 100% | 100% | 100% | 0% | 100% | 100% | 100% | 100% | 100% | 100% | – | –

Continued, values first:

Row | kinase still bound, per cent of control [1] | kinase still bound, per cent of control [2] | kinase still bound, per cent of control [3] | kinase still bound, per cent of control [4] | kinase still bound, per cent of control [5] | kinase still bound, per cent of control [6] | kinase still bound, per cent of control [7] | kinase still bound, per cent of control [8] | kinase still bound, per cent of control [9] | kinase still bound, per cent of control [10] | kinase still bound, per cent of control [11] | kinase still bound, per cent of control [12] | kinase still bound, per cent of control [13] | kinase still bound, per cent of control [14] | kinase still bound, per cent of control [15] | SMILES
9 | 100% | 100% | 100% | 100% | 100% | 100% | 100% | 17% | 100% | 100% | 100% | 5% | 100% | – | – | COc1cc(N2CCN(C)CC2)ccc1Nc1ncc2c(n1)N(C)c1ccccc1C(=O)N2C
10 | 100% | 12% | – | 100% | 2.8% | 4.8% | 100% | 100% | 100% | 100% | 100% | 100% | – | – | – | Cn1c(=O)n(-c2ccc(C(C)(C)C#N)cc2)c2c3cc(-c4cnc5ccccc5c4)ccc3ncc21
11 | 50% | 26% | 31% | 26% | 100% | 73% | 24% | 70% | 92% | 47% | 94% | 100% | – | 60% | 57% | COc1cc2ncn(-c3cc(OCc4ccccc4C(F)(F)F)c(C(N)=O)s3)c2cc1OC
12 | 0.55% | 100% | – | 1.4% | – | – | 100% | 100% | 100% | 0.2% | 0.1% | 100% | – | – | – | C=CC(=O)Nc1ccc(CN(C(=O)Nc2c(Cl)c(OC)cc(OC)c2Cl)c2cc(Nc3ccc(N4CCN(C)CC4)cc3)ncn2)cc1
13 | 0.05% | 0.8% | – | 100% | – | – | 100% | 100% | 100% | 0.1% | 0.35% | 100% | – | – | – | C=CC(=O)Nc1cccc(Oc2nc(Nc3ccc(N4CCN(C)CC4)cc3OC)ncc2Cl)c1
14 | 100% | 16% | 79% | – | 1% | 2.6% | 66% | 100% | 88% | 100% | – | 100% | 8.6% | 99% | – | CCC(=O)N1CCN(c2ccc(-n3c(=O)ccc4cnc5ccc(-c6cnc7ccccc7c6)cc5c43)cc2C(F)(F)F)CC1
15 | 100% | 0.1% | – | 20% | – | – | 0.2% | 28% | 100% | 100% | 100% | 30% | – | – | – | CNC(=O)c1ccc(Nc2cc(Nc3ccccc3S(=O)(=O)C(C)C)c3cc[nH]c3n2)nc1
16 | 100% | – | 100% | 79% | 100% | 100% | 64% | 100% | 56% | 100% | – | 55% | 100% | 41% | 72% | N#CCNC(=O)c1ccc(-c2ccnc(Nc3ccc(N4CCOCC4)cc3)n2)cc1
